Reference: PubChem BioAssay (NCI)
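Protocol summary: plate cells (96-well), add compound at 5 concentrations, incubate 48 h, interpolate endpoints linearly. GI50 marks 50% less growth. Definition used: TGI = concentration required for complete inhibition of growth.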

Experiments:
Assay in all cases: NCI tumour cell line growth inhibition, 48 h
SK-MEL-5 melanoma = system: SK-MEL-5 melanoma
SW-620 colon = system: SW-620 colon
TK-10 renal = system: TK-10 renal
HOP-62 NSCLC = system: HOP-62 NSCLC
MOLT-4 leukemia = system: MOLT-4 leukemia
M14 melanoma = system: M14 melanoma
SF-268 CNS = system: SF-268 CNS
HT29 colon = system: HT29 colon
ACHN renal = system: ACHN renal
SNB-75 CNS = system: SNB-75 CNS

## c1cc2ccc1C1NCCCN1CCN1CCCNC1c1ccc(cc1)C1NCCCN1CCN1CCCNC21 (stereo not given)
SK-MEL-5 melanoma
  TGI: > 100 µM
SW-620 colon
  TGI: 48.5 µM
TK-10 renal
  TGI: > 100 µM
HOP-62 NSCLC
  TGI: > 100 µM
MOLT-4 leukemia
  TGI: > 100 µM
M14 melanoma
  TGI: > 100 µM
SF-268 CNS
  TGI: > 100 µM
HT29 colon
  TGI: > 100 µM
ACHN renal
  TGI: > 100 µM
SNB-75 CNS
  TGI: > 100 µM

## Fc1ccc(-c2cc(-c3cn[nH]c3-c3ccccn3)ccn2)cc1
SK-MEL-5 melanoma
  GI50: > 25 µM
  TGI: > 25 µM
SW-620 colon
  GI50: > 25 µM
  TGI: > 25 µM
TK-10 renal
  GI50: > 25 µM
  TGI: > 25 µM
HOP-62 NSCLC
  GI50: > 25 µM
  TGI: > 25 µM
MOLT-4 leukemia
  GI50: > 25 µM
  TGI: > 25 µM
M14 melanoma
  GI50: > 17 µM
  TGI: > 25 µM
SF-268 CNS
  GI50: > 25 µM
  TGI: > 25 µM
HT29 colon
  GI50: > 25 µM
  TGI: > 25 µM
ACHN renal
  GI50: > 25 µM
  TGI: > 25 µM
SNB-75 CNS
  GI50: > 25 µM
  TGI: > 25 µM

## NC(=O)c1c(NC(=O)c2cccc(C(F)(F)F)c2)sc2c1CCC(=O)C2
SK-MEL-5 melanoma
  GI50: 1.18 µM
  TGI: 2.95 µM
SW-620 colon
  GI50: 0.234 µM
  TGI: 1.62 µM
TK-10 renal
  GI50: 0.753 µM
  TGI: 13.3 µM
HOP-62 NSCLC
  GI50: 3.06 µM
  TGI: > 91.5 µM
MOLT-4 leukemia
  GI50: 0.404 µM
  TGI: > 20.2 µM
M14 melanoma
  GI50: 0.437 µM
  TGI: 11.6 µM
SF-268 CNS
  GI50: 0.429 µM
  TGI: > 100 µM
HT29 colon
  GI50: 0.378 µM
  TGI: > 100 µM
ACHN renal
  GI50: 0.322 µM
  TGI: 1.05 µM
SNB-75 CNS
  GI50: 0.507 µM
  TGI: 3.84 µM

## O=c1c2ccccc2c(=O)c2c1sc1c(=O)c3ccc(O)cc3c(=O)c12
SK-MEL-5 melanoma
  GI50: 0.127 µM
  TGI: 0.256 µM
SW-620 colon
  GI50: 0.436 µM
  TGI: 1.56 µM
TK-10 renal
  GI50: 2.24 µM
  TGI: 3.97 µM
HOP-62 NSCLC
  GI50: 0.15 µM
  TGI: 0.285 µM
MOLT-4 leukemia
  GI50: 2.17 µM
  TGI: 8.07 µM
M14 melanoma
  GI50: 0.0976 µM
  TGI: 0.219 µM
SF-268 CNS
  GI50: 1.04 µM
  TGI: 7.62 µM
HT29 colon
  GI50: 2.39 µM
  TGI: 6.01 µM
ACHN renal
  GI50: 0.864 µM
  TGI: 2.38 µM
SNB-75 CNS
  GI50: 0.183 µM
  TGI: 0.4 µM

## COc1ccc2nc3cc(Cl)ccc3c(Nc3ccc(O)c(CN4CCCC4)c3)c2c1
SK-MEL-5 melanoma
  GI50: 1.82 µM
  TGI: 3.24 µM
SW-620 colon
  GI50: 1.94 µM
  TGI: 6.19 µM
TK-10 renal
  GI50: 2.29 µM
  TGI: 4.75 µM
HOP-62 NSCLC
  GI50: 2.14 µM
  TGI: 5.34 µM
MOLT-4 leukemia
  GI50: 2.43 µM
  TGI: 11.4 µM
M14 melanoma
  GI50: 1.89 µM
  TGI: 3.54 µM
SF-268 CNS
  GI50: 3.79 µM
  TGI: > 100 µM
HT29 colon
  GI50: 1.32 µM
  TGI: 3.44 µM
ACHN renal
  GI50: 1.74 µM
  TGI: 3.18 µM
SNB-75 CNS
  GI50: 1.99 µM
  TGI: 3.79 µM

## O=C(Nc1nc2ccc(F)cc2s1)c1cccnc1Nc1ccc(Cl)cc1Cl
SK-MEL-5 melanoma
  GI50: 1.87 µM
  TGI: 6.11 µM
SW-620 colon
  GI50: 3.04 µM
  TGI: 15.1 µM
TK-10 renal
  GI50: 3.53 µM
  TGI: 19.1 µM
HOP-62 NSCLC
  GI50: 3.05 µM
  TGI: 12.8 µM
MOLT-4 leukemia
  GI50: 2.35 µM
  TGI: 17.3 µM
M14 melanoma
  GI50: 3.18 µM
  TGI: 14.6 µM
SF-268 CNS
  GI50: 3.34 µM
  TGI: 16.3 µM
HT29 colon
  GI50: 2.05 µM
  TGI: 9.75 µM
ACHN renal
  GI50: 3.35 µM
  TGI: 13.7 µM
SNB-75 CNS
  GI50: 1.96 µM
  TGI: 9.14 µM

## C/C(=N\O)[C@H]1CC[C@@]2(C)[C@@H]3CC[C@H]4C(C)(C)/C(=N/O)CC[C@@]45CC35CC[C@]12C (stereo not given in full)
SK-MEL-5 melanoma
  GI50: 1.51 µM
  TGI: 7.59 µM
SW-620 colon
  GI50: 8.68 µM
  TGI: > 16.7 µM
TK-10 renal
  GI50: 8.17 µM
  TGI: > 16.7 µM
HOP-62 NSCLC
  GI50: 4.3 µM
  TGI: > 16.7 µM
MOLT-4 leukemia
  GI50: 3.26 µM
  TGI: > 16.7 µM
M14 melanoma
  GI50: 3.2 µM
  TGI: 8.11 µM
SF-268 CNS
  GI50: 4.16 µM
  TGI: 14.1 µM
HT29 colon
  GI50: 5.56 µM
  TGI: > 16.7 µM
ACHN renal
  GI50: 2.51 µM
  TGI: 4.97 µM
SNB-75 CNS
  GI50: 7.46 µM
  TGI: 14.8 µM

## C=C[C@@]1(C)CC(=O)[C@]2(O)[C@@]3(C)[C@@H](O)CCC(C)(C)[C@@H]3[C@H](O)[C@@H](OC(C)=O)[C@@]2(C)O1
SK-MEL-5 melanoma
  TGI: > 100 µM
SW-620 colon
  TGI: > 100 µM
TK-10 renal
  TGI: > 100 µM
HOP-62 NSCLC
  TGI: > 100 µM
MOLT-4 leukemia
  TGI: > 100 µM
M14 melanoma
  TGI: > 100 µM
SF-268 CNS
  TGI: > 100 µM
HT29 colon
  TGI: > 100 µM
ACHN renal
  TGI: > 100 µM
SNB-75 CNS
  TGI: > 100 µM

## CCOC(=O)C(=Cc1c(-c2ccccc2)[nH]c2ccccc12)C(=O)OCC
SK-MEL-5 melanoma
  GI50: 3.81 µM
  TGI: 14.2 µM
SW-620 colon
  GI50: 5.57 µM
  TGI: 22.1 µM
TK-10 renal
  GI50: 13.5 µM
  TGI: 56.9 µM
HOP-62 NSCLC
  GI50: 4.27 µM
  TGI: 14.1 µM
MOLT-4 leukemia
  GI50: 3.81 µM
  TGI: 18.8 µM
M14 melanoma
  GI50: 4.16 µM
  TGI: 15.6 µM
SF-268 CNS
  GI50: 7.46 µM
  TGI: 28.5 µM
HT29 colon
  GI50: 4.56 µM
  TGI: 17.1 µM
ACHN renal
  GI50: 4.34 µM
  TGI: 23.6 µM
SNB-75 CNS
  GI50: 6.55 µM
  TGI: 28.4 µM

## COc1ccc(-c2nn3ncccc3c2-c2ccnc(Nc3cccc(C(F)(F)F)c3)n2)cc1
SK-MEL-5 melanoma
  GI50: 5.27 µM
  TGI: 14.5 µM
SW-620 colon
  GI50: 10.8 µM
  TGI: > 25 µM
TK-10 renal
  GI50: 8.49 µM
  TGI: > 22.5 µM
HOP-62 NSCLC
  GI50: 16.8 µM
  TGI: > 25 µM
MOLT-4 leukemia
  GI50: 8.8 µM
  TGI: > 25 µM
M14 melanoma
  GI50: 9.01 µM
  TGI: > 25 µM
SF-268 CNS
  GI50: 9.86 µM
  TGI: > 25 µM
HT29 colon
  GI50: 7.56 µM
  TGI: > 25 µM
ACHN renal
  GI50: 6.7 µM
  TGI: > 25 µM
SNB-75 CNS
  GI50: > 16.3 µM
  TGI: > 25 µM

## C=C1c2ccccc2N(S(=O)(=O)c2ccc(C)cc2)C12CCCCC2
SK-MEL-5 melanoma
  TGI: > 100 µM
SW-620 colon
  TGI: > 100 µM
TK-10 renal
  TGI: > 100 µM
HOP-62 NSCLC
  TGI: > 100 µM
MOLT-4 leukemia
  TGI: > 100 µM
M14 melanoma
  TGI: > 100 µM
SF-268 CNS
  TGI: > 100 µM
HT29 colon
  TGI: > 100 µM
ACHN renal
  TGI: > 100 µM
SNB-75 CNS
  TGI: > 100 µM
